Values quoted from earlier work as cited in patent publication US7732483B2, “DNA-PK inhibitors” (Kudos Pharmaceuticals Limited, priority 2004, dated 2010).

Test system: cells
Settings: Rosenzweig et al. 1999

O=c1cc(N2CCOCC2)oc2c(-c3ccccc3)cccc12 [LY294002]
sensitisation of cells to the effects of IR: weakly sensitise cells to the effects of IR
